Measured values reported in the supplement of paper PMC10307832.

Legend:
Assay in all cases: relative viability (nuclei count vs DMSO), 5 days (fraction); higher = more cells survive
[1] = tested on: HCC-366
Outline: (§1)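 Medians of duplicate plates are given as relative viability. That measure is the nuclei count in treated wells divided by the count in vehicle wells. Counts were taken on 4× images of lung cancer cell lines in 1536-well plates, 5 days after pin-tool dosing the day after seeding with one drug alone or a fixed anchor-drug dose plus five library-drug doses (not always all listed) in √10 steps.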

[2] = tested on: LOU-NH91
Outline: as §1

[3] = tested on: NCI-H1437
Outline: as §1

[4] = tested on: NCI-H1993
Outline: as §1

[5] = tested on: EKVX
Outline: as §1

[6] = tested on: NCI-H2342
Outline: as §1

[7] = tested on: SK-LU-1
Outline: as §1

[8] = tested on: NCI-H2009
Outline: as §1

[9] = tested on: NCI-H1355
Outline: as §1

[10] = tested on: NCI-H2170
Outline: as §1

[11] = tested on: NCI-H661
Outline: as §1

[12] = tested on: NCI-H1395
Outline: as §1

[13] = tested on: NCI-H2087
Outline: as §1

[14] = tested on: HCC-827
Outline: as §1

[15] = tested on: NCI-H2405
Outline: as §1

[16] = tested on: NCI-H1734
Outline: as §1

[17] = tested on: NCI-H647
Outline: as §1

[18] = tested on: HARA
Outline: as §1

[19] = tested on: SK-MES-1
Outline: as §1

[20] = tested on: BEN
Outline: as §1

Cc1sc2c(c1C)C(c1ccc(Cl)cc1)=N[C@@H](CC(=O)OC(C)(C)C)c1nnc(C)n1-2 [JQ1] + COc1cc2c(Oc3ccc(NC(=O)C4(C(=O)Nc5ccc(F)cc5)CC4)cc3F)ccnc2cc1OCCCN1CCOCC1 [Foretinib] (partner 0.25 µM)
relative viability ([1]; first compound 0.04 µM): 0.994
relative viability ([1]; first compound 0.4 µM): 0.827
relative viability ([1]; first compound 1.265 µM): 0.359
relative viability ([1]; first compound 4 µM): 0.266
relative viability ([2]; first compound 0.04 µM): 0.944
relative viability ([2]; first compound 0.1265 µM): 0.777
relative viability ([2]; first compound 0.4 µM): 0.618
relative viability ([2]; first compound 1.265 µM): 0.625
relative viability ([2]; first compound 4 µM): 0.482
relative viability ([3]; first compound 0.04 µM): 1.11
relative viability ([3]; first compound 0.1265 µM): 1.23
relative viability ([3]; first compound 0.4 µM): 1.03
relative viability ([3]; first compound 1.265 µM): 0.464
relative viability ([3]; first compound 4 µM): 0.384
relative viability ([4]; first compound 0.04 µM): 0.794
relative viability ([4]; first compound 0.1265 µM): 0.794
relative viability ([4]; first compound 0.4 µM): 0.682
relative viability ([4]; first compound 1.265 µM): 0.692
relative viability ([4]; first compound 4 µM): 0.738
relative viability ([5]; first compound 0.04 µM): 0.881
relative viability ([5]; first compound 0.1265 µM): 0.448
relative viability ([5]; first compound 0.4 µM): 0.787
relative viability ([5]; first compound 1.265 µM): 0.655
relative viability ([5]; first compound 4 µM): 0.512
relative viability ([6]; first compound 0.04 µM): 1.09
relative viability ([6]; first compound 0.1265 µM): 0.843
relative viability ([6]; first compound 0.4 µM): 1.08
relative viability ([6]; first compound 1.265 µM): 0.91
relative viability ([6]; first compound 4 µM): 0.824
relative viability ([7]; first compound 0.04 µM): 0.848
relative viability ([7]; first compound 0.1265 µM): 0.613
relative viability ([7]; first compound 0.4 µM): 0.787
relative viability ([7]; first compound 1.265 µM): 0.306
relative viability ([7]; first compound 4 µM): 0.153
relative viability ([8]; first compound 0.04 µM): 1.06
relative viability ([8]; first compound 0.1265 µM): 0.801
relative viability ([8]; first compound 0.4 µM): 0.786
relative viability ([8]; first compound 1.265 µM): 0.413
relative viability ([8]; first compound 4 µM): 0.352
relative viability ([9]; first compound 0.04 µM): 0.925
relative viability ([9]; first compound 0.1265 µM): 0.936
relative viability ([9]; first compound 0.4 µM): 0.735
relative viability ([9]; first compound 1.265 µM): 0.677
relative viability ([9]; first compound 4 µM): 0.562
relative viability ([10]; first compound 0.04 µM): 1.03
relative viability ([10]; first compound 0.1265 µM): 0.928
relative viability ([10]; first compound 0.4 µM): 0.837
relative viability ([10]; first compound 1.265 µM): 0.762
relative viability ([10]; first compound 4 µM): 0.626
relative viability ([11]; first compound 0.04 µM): 1.04
relative viability ([11]; first compound 0.1265 µM): 0.945
relative viability ([11]; first compound 0.4 µM): 1.03
relative viability ([11]; first compound 1.265 µM): 0.7
relative viability ([11]; first compound 4 µM): 0.668
relative viability ([12]; first compound 0.04 µM): 0.716
relative viability ([12]; first compound 0.1265 µM): 0.955
relative viability ([12]; first compound 0.4 µM): 1
relative viability ([12]; first compound 1.265 µM): 0.732
relative viability ([12]; first compound 4 µM): 0.525
relative viability ([13]; first compound 0.04 µM): 1.06
relative viability ([13]; first compound 0.1265 µM): 0.997
relative viability ([13]; first compound 0.4 µM): 0.766
relative viability ([13]; first compound 1.265 µM): 0.518
relative viability ([13]; first compound 4 µM): 0.479
relative viability ([14]; first compound 0.04 µM): 1.1
relative viability ([14]; first compound 0.4 µM): 1.14
relative viability ([14]; first compound 1.265 µM): 1.22
relative viability ([14]; first compound 4 µM): 0.907
relative viability ([15]; first compound 0.04 µM): 1.08
relative viability ([15]; first compound 0.1265 µM): 1.02
relative viability ([15]; first compound 0.4 µM): 1.03
relative viability ([15]; first compound 1.265 µM): 0.835
relative viability ([15]; first compound 4 µM): 0.744
relative viability ([16]; first compound 0.04 µM): 0.963
relative viability ([16]; first compound 0.1265 µM): 0.834
relative viability ([16]; first compound 0.4 µM): 0.872
relative viability ([16]; first compound 1.265 µM): 0.499
relative viability ([16]; first compound 4 µM): 0.531
relative viability ([17]; first compound 0.04 µM): 1.21
relative viability ([17]; first compound 0.1265 µM): 0.914
relative viability ([17]; first compound 0.4 µM): 0.841
relative viability ([17]; first compound 1.265 µM): 0.242
relative viability ([17]; first compound 4 µM): 0.204
relative viability ([18]; first compound 0.04 µM): 0.89
relative viability ([18]; first compound 0.1265 µM): 0.647
relative viability ([18]; first compound 0.4 µM): 0.572
relative viability ([18]; first compound 1.265 µM): 0.343
relative viability ([18]; first compound 4 µM): 0.227
relative viability ([19]; first compound 0.04 µM): 0.817
relative viability ([19]; first compound 0.1265 µM): 0.642
relative viability ([19]; first compound 0.4 µM): 0.675
relative viability ([19]; first compound 1.265 µM): 0.359
relative viability ([19]; first compound 4 µM): 0.333
relative viability ([20]; first compound 0.04 µM): 0.482
relative viability ([20]; first compound 0.1265 µM): 0.529
relative viability ([20]; first compound 0.4 µM): 0.495
relative viability ([20]; first compound 1.265 µM): 0.327
relative viability ([20]; first compound 4 µM): 0.262

COc1cc2nccc(Oc3ccc(NC(=O)Nc4cc(C)on4)c(Cl)c3)c2cc1OC [Tivozanib] + COc1cc2c(Oc3ccc(NC(=O)C4(C(=O)Nc5ccc(F)cc5)CC4)cc3F)ccnc2cc1OCCCN1CCOCC1 [Foretinib] (partner 0.25 µM)
relative viability ([1]; first compound 0.005 µM): 0.934
relative viability ([1]; first compound 0.01581 µM): 0.932
relative viability ([1]; first compound 0.05 µM): 0.9
relative viability ([1]; first compound 0.1581 µM): 0.969
relative viability ([1]; first compound 0.5 µM): 0.861
relative viability ([2]; first compound 0.005 µM): 0.874
relative viability ([2]; first compound 0.01581 µM): 0.974
relative viability ([2]; first compound 0.05 µM): 0.993
relative viability ([2]; first compound 0.1581 µM): 0.982
relative viability ([2]; first compound 0.5 µM): 0.962
relative viability ([3]; first compound 0.005 µM): 1.1
relative viability ([3]; first compound 0.01581 µM): 1.22
relative viability ([3]; first compound 0.05 µM): 1.18
relative viability ([3]; first compound 0.1581 µM): 1.24
relative viability ([3]; first compound 0.5 µM): 1.25
relative viability ([4]; first compound 0.005 µM): 0.632
relative viability ([4]; first compound 0.01581 µM): 0.712
relative viability ([4]; first compound 0.05 µM): 0.757
relative viability ([4]; first compound 0.1581 µM): 0.733
relative viability ([4]; first compound 0.5 µM): 0.722
relative viability ([5]; first compound 0.005 µM): 0.695
relative viability ([5]; first compound 0.01581 µM): 0.891
relative viability ([5]; first compound 0.05 µM): 0.84
relative viability ([5]; first compound 0.1581 µM): 0.456
relative viability ([5]; first compound 0.5 µM): 0.786
relative viability ([6]; first compound 0.005 µM): 0.96
relative viability ([6]; first compound 0.01581 µM): 1.11
relative viability ([6]; first compound 0.05 µM): 1.11
relative viability ([6]; first compound 0.5 µM): 1.05
relative viability ([7]; first compound 0.005 µM): 0.794
relative viability ([7]; first compound 0.01581 µM): 0.863
relative viability ([7]; first compound 0.05 µM): 0.885
relative viability ([7]; first compound 0.1581 µM): 0.762
relative viability ([7]; first compound 0.5 µM): 0.829
relative viability ([8]; first compound 0.005 µM): 1.2
relative viability ([8]; first compound 0.01581 µM): 1.16
relative viability ([8]; first compound 0.05 µM): 1.19
relative viability ([8]; first compound 0.1581 µM): 1.19
relative viability ([8]; first compound 0.5 µM): 1.13
relative viability ([9]; first compound 0.005 µM): 0.937
relative viability ([9]; first compound 0.01581 µM): 0.978
relative viability ([9]; first compound 0.05 µM): 0.975
relative viability ([9]; first compound 0.1581 µM): 0.929
relative viability ([9]; first compound 0.5 µM): 0.966
relative viability ([10]; first compound 0.005 µM): 0.943
relative viability ([10]; first compound 0.01581 µM): 0.982
relative viability ([10]; first compound 0.05 µM): 0.975
relative viability ([10]; first compound 0.1581 µM): 1.02
relative viability ([10]; first compound 0.5 µM): 1.06
relative viability ([11]; first compound 0.005 µM): 1
relative viability ([11]; first compound 0.01581 µM): 0.997
relative viability ([11]; first compound 0.05 µM): 1.03
relative viability ([11]; first compound 0.1581 µM): 0.806
relative viability ([11]; first compound 0.5 µM): 0.987
relative viability ([12]; first compound 0.005 µM): 1.04
relative viability ([12]; first compound 0.01581 µM): 1.01
relative viability ([12]; first compound 0.05 µM): 1.11
relative viability ([12]; first compound 0.1581 µM): 0.897
relative viability ([12]; first compound 0.5 µM): 1.03
relative viability ([13]; first compound 0.005 µM): 1.04
relative viability ([13]; first compound 0.01581 µM): 1.12
relative viability ([13]; first compound 0.05 µM): 1.11
relative viability ([13]; first compound 0.1581 µM): 0.957
relative viability ([13]; first compound 0.5 µM): 0.998
relative viability ([14]; first compound 0.005 µM): 0.994
relative viability ([14]; first compound 0.01581 µM): 1.09
relative viability ([14]; first compound 0.05 µM): 1.02
relative viability ([14]; first compound 0.1581 µM): 1.09
relative viability ([14]; first compound 0.5 µM): 1.01
relative viability ([15]; first compound 0.005 µM): 1.03
relative viability ([15]; first compound 0.01581 µM): 1.04
relative viability ([15]; first compound 0.05 µM): 1.08
relative viability ([15]; first compound 0.1581 µM): 1.07
relative viability ([15]; first compound 0.5 µM): 0.966
relative viability ([16]; first compound 0.005 µM): 0.88
relative viability ([16]; first compound 0.01581 µM): 0.888
relative viability ([16]; first compound 0.05 µM): 0.913
relative viability ([16]; first compound 0.1581 µM): 0.823
relative viability ([16]; first compound 0.5 µM): 0.863
relative viability ([17]; first compound 0.005 µM): 1.05
relative viability ([17]; first compound 0.01581 µM): 1.28
relative viability ([17]; first compound 0.05 µM): 1.26
relative viability ([17]; first compound 0.1581 µM): 1.13
relative viability ([17]; first compound 0.5 µM): 1.2
relative viability ([18]; first compound 0.005 µM): 0.859
relative viability ([18]; first compound 0.01581 µM): 0.855
relative viability ([18]; first compound 0.05 µM): 0.928
relative viability ([18]; first compound 0.1581 µM): 0.952
relative viability ([18]; first compound 0.5 µM): 0.905
relative viability ([19]; first compound 0.005 µM): 0.862
relative viability ([19]; first compound 0.01581 µM): 0.974
relative viability ([19]; first compound 0.05 µM): 1.01
relative viability ([19]; first compound 0.1581 µM): 0.981
relative viability ([19]; first compound 0.5 µM): 0.924
relative viability ([20]; first compound 0.005 µM): 0.559
relative viability ([20]; first compound 0.01581 µM): 0.789
relative viability ([20]; first compound 0.05 µM): 0.731
relative viability ([20]; first compound 0.1581 µM): 0.25
relative viability ([20]; first compound 0.5 µM): 0.456
